# Assays:
# Botrytis cinerea = assay: Test B: gray mold, preventive spray on tomato seedlings; settings: 100 = 100% disease control; for Test B rating (% disease control): 10 ppm, gray mold on tomato, 0 = no control; for Test B disease control rating: 10 ppm test solution, 0 = no control relative to controls
# [1] = test system: Puccinia recondita f sp. tritici; assay: Test F: wheat leaf rust, preventive spray on wheat seedlings; settings: 100 = 100% disease control; for Test F rating (% disease control): 10 ppm, wheat leaf rust, 0 = no control; for Test F disease control rating: 10 ppm test solution, 0 = no control relative to controls
# Excerpt: (§1) General protocol for preparing test solutions for Tests A-G: the test compounds were first dissolved in acetone in an amount equal to 3% of the final volume and then suspended at the desired concentration (in ppm) in acetone and purified water (50/50 mix by volume) containing 250 ppm of the surfactant PEG400 (polyhydric alcohol esters). The resulting test suspensions were then used in Tests A-G. Compounds were sprayed at a concentration of 50 ppm (*) or 10 ppm to the point of run-off on the test plants, the equivalent of a rate of 200 g/ha or 40 g/ha, respectively.
# The test solution was sprayed to the point of run-off on wheat seedlings. The following day the seedlings were inoculated with a spore suspension of Puccinia recondita f sp. tritici; (the causal agent of wheat leaf rust) and incubated in a saturated atmosphere at 20° C. for 24 h, and then moved to a growth chamber at 20° C. for 6 days, after which time visual disease ratings were made.
# A dash (-) indicates no test results. Compounds with an asterisks (*) were applied at a concentration of 50 ppm, otherwise test solutions were applied at 10 ppm.
# Zymoseptoria tritici = assay: Test E: wheat leaf blotch, preventive spray on wheat seedlings; settings: 100 = 100% disease control; for Test E rating (% disease control): 10 ppm, wheat leaf blotch, 0 = no control; for Test E disease control rating: 10 ppm test solution, 0 = no control relative to controls
# Excerpt: as §1
# The test solution was sprayed to the point of run-off on wheat seedlings. The following day the seedlings were inoculated with a spore suspension of Zymoseptoria tritici (the causal agent of wheat leaf blotch) and incubated in a saturated atmosphere at 24° C. for 48 h, and then moved to a growth chamber at 20° C. for 17 days, after which time visual disease ratings were made.
# (§2) Compounds with an asterisks (*) were applied at a concentration of 50 ppm, otherwise test solutions were applied at 10 ppm.
# Stagonospora nodorum = assay: Test D: wheat glume blotch, preventive spray on wheat seedlings; settings: 100 = 100% disease control; for Test D rating (% disease control): 10 ppm, wheat glume blotch, 0 = no control; for Test D disease control rating: 10 ppm test solution, 0 = no control relative to controls
# Excerpt: as §1
# The test solution was sprayed to the point of run-off on wheat seedlings. The following day the seedlings were inoculated with a spore suspension of Stagonospora nodorum (also known as Septoria nodorum; the causal agent of wheat glume blotch) and incubated in a saturated atmosphere at 20° C. for 48 h, and then moved to a growth chamber at 20° C. for 6 days, after which time visual disease ratings were made.
# as §2
# [2] = test system: Erysiphe graminis f sp. tritici; assay: Test G: wheat powdery mildew, preventive spray on wheat seedlings; settings: 100 = 100% disease control; for Test G rating (% disease control): 10 ppm, wheat powdery mildew, 0 = no control; for Test G disease control rating: 10 ppm test solution, 0 = no control relative to controls
smiles,measurement,setting,value
"CCCCC(O)(Cn1cncn1)C1=NOC(c2ccc(Cl)cc2)C1 (single isomer, unassigned) [Compound 155]",Test B rating (% disease control),Botrytis cinerea,0%
same,Test F rating (% disease control),[1],100%
same,Test E rating (% disease control),Zymoseptoria tritici,2%
same,Test D rating (% disease control),Stagonospora nodorum,100%
same,Test G rating (% disease control),[2],100%
"CC(C)(C)C(O)(Cn1cncn1)C1=NOC(CCc2ccc(C(F)(F)F)cc2)C1 (single isomer, unassigned) [Compound 13]",Test B rating (% disease control),Botrytis cinerea,0%
same,Test F rating (% disease control),[1],100%
same,Test E rating (% disease control),Zymoseptoria tritici,98%
same,Test D rating (% disease control),Stagonospora nodorum,100%
same,Test G rating (% disease control),[2],100%
"OC(Cn1cncn1)(C1=NOC(c2ccc(F)cc2)C1)c1ccc(Cl)cc1 (single isomer, unassigned) [Compound 159]",Test B rating (% disease control),Botrytis cinerea,0%
same,Test F rating (% disease control),[1],0%
same,Test E rating (% disease control),Zymoseptoria tritici,0%
same,Test D rating (% disease control),Stagonospora nodorum,0%
same,Test G rating (% disease control),[2],97%
"Cn1nc(C(F)(F)F)cc1OCC1CC(C(O)(Cn2cncn2)C(C)(C)C)=NO1 (single isomer, unassigned) [Compound 56]",Test B rating (% disease control),Botrytis cinerea,0%
same,Test F rating (% disease control),[1],97%
same,Test E rating (% disease control),Zymoseptoria tritici,0%
same,Test D rating (% disease control),Stagonospora nodorum,20%
same,Test G rating (% disease control),[2],94%
"CC1(COc2ccc(Cl)cc2)CC(C(O)(Cn2cncn2)C(C)(C)C)=NO1 (single isomer, unassigned) [Compound 217]",Test B disease control rating,Botrytis cinerea,0%
same,Test F disease control rating,[1],100%
same,Test E disease control rating,Zymoseptoria tritici,0%
same,Test D disease control rating,Stagonospora nodorum,92%
"OC(Cn1cncn1)(C1=NOC(COc2ccccc2)C1)c1ccc(Cl)cc1 (single isomer, unassigned) [Compound 145]",Test B rating (% disease control),Botrytis cinerea,0%
same,Test E rating (% disease control),Zymoseptoria tritici,28%
same,Test G rating (% disease control),[2],88%
"CC1(COc2ccc(Cl)cc2)CC(C(O)(Cn2cncn2)c2ccc(Cl)cc2)=NO1 (single isomer, unassigned) [Compound 219]",Test B disease control rating,Botrytis cinerea,0%
same,Test F disease control rating,[1],95%
same,Test E disease control rating,Zymoseptoria tritici,0%
same,Test D disease control rating,Stagonospora nodorum,0%
"OC(Cn1cncn1)(C1=NOC(COc2ncc(Cl)cn2)C1)c1ccc(Cl)cc1 (single isomer, unassigned) [Compound 166]",Test B rating (% disease control),Botrytis cinerea,0%
same,Test F rating (% disease control),[1],41%
same,Test E rating (% disease control),Zymoseptoria tritici,0%
same,Test D rating (% disease control),Stagonospora nodorum,0%
"CC(C)(C)C(O)(Cn1cncn1)C1=NOC(COc2cccc(C(F)(F)F)c2)C1 (single isomer, unassigned) [Compound 253]",Test F disease control rating,[1],100%
same,Test E disease control rating,Zymoseptoria tritici,3%
same,Test D disease control rating,Stagonospora nodorum,99%
same,Test G disease control rating,[2],100%
"CC(C)(C)C(O)(Cn1cncn1)C1=NOC(CCOc2ccc(Cl)cc2)C1 (single isomer, unassigned) [Compound 209]",Test F rating (% disease control),[1],100%
same,Test E rating (% disease control),Zymoseptoria tritici,11%
same,Test D rating (% disease control),Stagonospora nodorum,99%
same,Test G rating (% disease control),[2],100%
"CC(C)(C)C(O)(Cn1cncn1)C1=NOC(COc2ccc(Cl)cc2)C1 (single isomer, unassigned) [Compound 243]",Test F disease control rating,[1],99%
same,Test E disease control rating,Zymoseptoria tritici,0%
same,Test D disease control rating,Stagonospora nodorum,0%
same,Test G disease control rating,[2],0%
"CC(C)(C)C(O)(Cn1cncn1)C1=NOC(CCOc2ccc(F)cc2)C1 (single isomer, unassigned) [Compound 270]",Test F disease control rating,[1],100%
same,Test E disease control rating,Zymoseptoria tritici,75%
same,Test D disease control rating,Stagonospora nodorum,99%
same,Test G disease control rating,[2],100%
"CC(C)(C)C(O)(Cn1cncn1)C1=NOC(COc2ccc(Cl)c(Cl)c2)C1 (single isomer, unassigned) [Compound 258]",Test F disease control rating,[1],100%
same,Test E disease control rating,Zymoseptoria tritici,0%
same,Test D disease control rating,Stagonospora nodorum,100%
same,Test G disease control rating,[2],100%
"CC(C)(C)C(O)(Cn1cncn1)C1=NOC(COCc2ccc(Cl)cc2)C1 (single isomer, unassigned) [Compound 264]",Test F disease control rating,[1],0%
same,Test E disease control rating,Zymoseptoria tritici,0%
same,Test D disease control rating,Stagonospora nodorum,0%
same,Test G disease control rating,[2],99%
"OC(Cn1cncn1)(C1=NOC(COc2ncc(Cl)cn2)C1)c1ccc(Cl)cc1 (single isomer, unassigned) [Compound 167]",Test B rating (% disease control),Botrytis cinerea,0%
same,Test F rating (% disease control),[1],98%
same,Test E rating (% disease control),Zymoseptoria tritici,0%
same,Test D rating (% disease control),Stagonospora nodorum,0%
"CC1(COc2ccc(Cl)cc2)CC(C(O)(Cn2cncn2)C(C)(C)C)=NO1 (single isomer, unassigned) [Compound 216]",Test B disease control rating,Botrytis cinerea,0%
same,Test F disease control rating,[1],100%
same,Test E disease control rating,Zymoseptoria tritici,0%
same,Test D disease control rating,Stagonospora nodorum,86%
"OC(Cn1cncn1)(C1=NOC(COc2ccc(Cl)cc2)C1)C1CCCCC1 (single isomer, unassigned) [Compound 266]",Test F disease control rating,[1],100%
same,Test E disease control rating,Zymoseptoria tritici,0%
same,Test D disease control rating,Stagonospora nodorum,100%
same,Test G disease control rating,[2],100%
"CC(C)(C)C(O)(Cn1cncn1)C1=NOC(COCc2ccc(Cl)cc2)C1 (single isomer, unassigned) [Compound 263]",Test F disease control rating,[1],87%
same,Test E disease control rating,Zymoseptoria tritici,0%
same,Test D disease control rating,Stagonospora nodorum,99%
same,Test G disease control rating,[2],99%
"CC(C)(C)C(O)(Cn1cncn1)C1=NOC(COc2ccc(Cl)cc2)C1 (single isomer, unassigned) [Compound 242]",Test F disease control rating,[1],99%
same,Test E disease control rating,Zymoseptoria tritici,0%
same,Test D disease control rating,Stagonospora nodorum,0%
same,Test G disease control rating,[2],68%
OC(COc1ccc(Cl)cc1)(Cn1cncn1)C1=NOC(c2ccc(Cl)cc2)C1 (stereo not shown) [Compound 273],Test F disease control rating,[1],98%
same,Test E disease control rating,Zymoseptoria tritici,2%
same,Test D disease control rating,Stagonospora nodorum,11%
same,Test G disease control rating,[2],69%
"CC(C)CC(O)(Cn1cncn1)C1=NOC(COc2ccc(Cl)cc2)C1 (single isomer, unassigned) [Compound 268]",Test F disease control rating,[1],100%
same,Test E disease control rating,Zymoseptoria tritici,0%
same,Test D disease control rating,Stagonospora nodorum,82%
same,Test G disease control rating,[2],95%
CC(C)(C)C(O)(Cn1cnnn1)C1=NOC(COc2ccc(Cl)cc2)C1 (stereo not shown) [Compound 247],Test F disease control rating,[1],97%
same,Test E disease control rating,Zymoseptoria tritici,24%
same,Test D disease control rating,Stagonospora nodorum,0%
same,Test G disease control rating,[2],0%
"CC1(COc2ccc(Cl)cc2)CC(C(O)(Cn2cncn2)c2ccc(Cl)cc2)=NO1 (single isomer, unassigned) [Compound 218]",Test B disease control rating,Botrytis cinerea,0%
same,Test F disease control rating,[1],100%
same,Test E disease control rating,Zymoseptoria tritici,0%
same,Test D disease control rating,Stagonospora nodorum,21%
"CC#CC(O)(Cn1cncn1)C1=NOC(c2ccc(Cl)cc2)C1 (stereo not drawn) [Compound 103, α-[5-(4-chlorophenyl)-4,5-dihydro-3-isoxazolyl]-α-1-propyn-1-yl-1H-1,2,4-triazole-1-ethanol]",Test B rating (% disease control),Botrytis cinerea,0%
same,Test F rating (% disease control),[1],94%
same,Test E rating (% disease control),Zymoseptoria tritici,0%
same,Test G rating (% disease control),[2],92%
"COc1ccc(OCC2CC(C(O)(Cn3cncn3)C(C)(C)C)=NO2)cc1 (single isomer, unassigned) [Compound 260]",Test F disease control rating,[1],98%
same,Test E disease control rating,Zymoseptoria tritici,1%
same,Test D disease control rating,Stagonospora nodorum,99%
same,Test G disease control rating,[2],100%

# Source: patent US20160242416A1, “FUNGICIDAL ISOXAZOLINE CARBINOLS” (E I DU PONT DE NEMOURS AND COMPANY, priority 2015, published 2016)
